Common to all, as to conditions: primary screen
Test [1] has as its system ENR+CD organoids (ISC to Paneth cell differentiation). Nature of the test: Primary screen: basal (non-stimulated) lysozyme secretion LYZ.NS, 2.5-D 384-well ENR+CD organoid differentiation. It is filed as cell-based, mouse. The source says:
(§1) High-throughput screening.

For test [2] the test system is unchanged. Nature of the test: Primary screen: CCh-stimulated lysozyme secretion LYZ.S, 2.5-D 384-well ENR+CD organoid differentiation. It is filed as cell-based, mouse.
Description: as §1

Test [3] concerns ENR+CD organoids. Nature of the test: Primary screen: ATP (CellTiter-Glo 3D, CTG) cell number/viability, 2.5-D 384-well ENR+CD organoids.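 Note: compounds given at plating and again on day 3 over a 6-day differentiation from ENR+CV stem-cell-enriched precursors, ATP measured on day 6, plate median as control.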 In general terms: In ATP-based viability assays light output follows the ATP content of the culture.

Each structure is given as a SMILES string.

For the compound `COc1cc(F)c(C(C)C)cc1-c1ccc(C(F)(F)F)cc1CN1C(=O)O[C@H](c2cc(C(F)(F)F)cc(C(F)(F)F)c2)[C@@H]1C` [Anacetrapib (MK-0859)], the Dose.FC.LYZ.NS in test [1] (dose 0.08 uM) is 0.013 log2 fold change; in test [1] (dose 0.40 uM) it was 0.007 log2 fold change; in test [1] (dose 2.00 uM), −0.015 log2 fold change; in test [1] (dose 10.00 uM) it was −0.036 log2 fold change. Besides, the “Z.LYZ.NS (standard z score)” value in test [1] (dose 0.08 uM) is given as 0.112; in test [1] (dose 0.40 uM), 0.060; in test [1] (dose 2.00 uM) it was −0.129; in test [1] (dose 10.00 uM), −0.314. The Dose.FC.LYZ.S in test [2] (dose 0.08 uM) is 0.051 log2 fold change; in test [2] (dose 0.40 uM), −0.002 log2 fold change; in test [2] (dose 2.00 uM), −0.046 log2 fold change; in test [2] (dose 10.00 uM), −0.036 log2 fold change. The Dose.FC.CTG in test [3] (dose 0.08 uM) is reported as −0.090 log2 fold change; in test [3] (dose 0.40 uM) it was 0.035 log2 fold change; in test [3] (dose 2.00 uM) it was −0.094 log2 fold change; in test [3] (dose 10.00 uM), 0.031 log2 fold change. The “Z.CTG (standard z score)” value in test [3] (dose 0.08 uM) is given as −0.214; in test [3] (dose 0.40 uM), 0.084; in test [3] (dose 2.00 uM), −0.225; in test [3] (dose 10.00 uM), 0.075.

As to `CC(C)(C#N)c1cc(Cn2cncn2)cc(C(C)(C)C#N)c1` [Anastrozole], the Dose.FC.LYZ.NS in test [1] (dose 0.08 uM) is recorded as 0.035 log2 fold change; in test [1] (dose 0.40 uM), 0.106 log2 fold change; in test [1] (dose 2.00 uM), −0.003 log2 fold change; in test [1] (dose 10.00 uM), −0.067 log2 fold change. The “Z.LYZ.NS (standard z score)” value is 0.305 in test [1] (dose 0.08 uM), 0.924 in test [1] (dose 0.40 uM), −0.026 in test [1] (dose 2.00 uM) and −0.580 in test [1] (dose 10.00 uM). Also, the Dose.FC.LYZ.S in test [2] (dose 0.08 uM) is recorded as 0.045 log2 fold change; in test [2] (dose 0.40 uM), 0.100 log2 fold change; in test [2] (dose 2.00 uM), −0.008 log2 fold change; in test [2] (dose 10.00 uM) it was −0.081 log2 fold change. Also, the Dose.FC.CTG in test [3] (dose 0.08 uM) is reported as −0.117 log2 fold change; in test [3] (dose 0.40 uM), 0.024 log2 fold change; in test [3] (dose 2.00 uM), −0.058 log2 fold change; in test [3] (dose 10.00 uM), −0.499 log2 fold change.

In the case of `COc1ccc(C(=O)N2CCCC2=O)cc1` [Aniracetam], the Dose.FC.LYZ.NS in test [1] (dose 0.08 uM) is recorded as 0.089 log2 fold change; in test [1] (dose 0.40 uM) it was 0.056 log2 fold change; in test [1] (dose 2.00 uM) it was 0.032 log2 fold change; in test [1] (dose 10.00 uM), 0.012 log2 fold change. Also, the “Z.LYZ.NS (standard z score)” value in test [1] (dose 0.08 uM) is reported as 0.774; in test [1] (dose 0.40 uM) it was 0.486; in test [1] (dose 2.00 uM) it was 0.277; in test [1] (dose 10.00 uM), 0.105. Moreover, the Dose.FC.LYZ.S is 0.043 log2 fold change in test [2] (dose 0.08 uM), 0.148 log2 fold change in test [2] (dose 0.40 uM), 0.005 log2 fold change in test [2] (dose 2.00 uM) and −0.028 log2 fold change in test [2] (dose 10.00 uM). In addition, the Dose.FC.CTG was −0.088 log2 fold change in test [3] (dose 0.08 uM), 0.112 log2 fold change in test [3] (dose 0.40 uM), 0.054 log2 fold change in test [3] (dose 2.00 uM) and 0.019 log2 fold change in test [3] (dose 10.00 uM).

With `N#CC1(c2ccc(NC(=O)c3cccnc3NCc3ccncc3)cc2)CCCC1` [Apatinib], the Dose.FC.LYZ.NS in test [1] (dose 0.08 uM) came to 0.103 log2 fold change; in test [1] (dose 0.40 uM) it was 0.038 log2 fold change; in test [1] (dose 2.00 uM), 0.076 log2 fold change; in test [1] (dose 10.00 uM), 0.012 log2 fold change. The “Z.LYZ.NS (standard z score)” value is 0.897 in test [1] (dose 0.08 uM), 0.327 in test [1] (dose 0.40 uM), 0.660 in test [1] (dose 2.00 uM) and 0.101 in test [1] (dose 10.00 uM). Besides, the Dose.FC.LYZ.S in test [2] (dose 0.08 uM) is listed as 0.173 log2 fold change; in test [2] (dose 0.40 uM) it was 0.142 log2 fold change; in test [2] (dose 2.00 uM) it was 0.112 log2 fold change; in test [2] (dose 10.00 uM), 0.075 log2 fold change. For the same compound, the Dose.FC.CTG was 0.223 log2 fold change in test [3] (dose 0.08 uM), 0.302 log2 fold change in test [3] (dose 0.40 uM), 0.270 log2 fold change in test [3] (dose 2.00 uM) and 0.218 log2 fold change in test [3] (dose 10.00 uM).

Take `O=c1cc(-c2ccc(O)cc2)oc2cc(O)cc(O)c12` [Apigenin]: the Dose.FC.LYZ.NS in test [1] (dose 0.08 uM) is listed as 0.132 log2 fold change; in test [1] (dose 0.40 uM) it was 0.130 log2 fold change; in test [1] (dose 2.00 uM), 0.232 log2 fold change; in test [1] (dose 10.00 uM) it was 0.097 log2 fold change. For the same compound, the “Z.LYZ.NS (standard z score)” value in test [1] (dose 0.08 uM) was 1.147; in test [1] (dose 0.40 uM), 1.131; in test [1] (dose 2.00 uM), 2.021; in test [1] (dose 10.00 uM) it was 0.847. The Dose.FC.LYZ.S in test [2] (dose 0.08 uM) is 0.192 log2 fold change; in test [2] (dose 0.40 uM), 0.165 log2 fold change; in test [2] (dose 2.00 uM), 0.196 log2 fold change; in test [2] (dose 10.00 uM), 0.098 log2 fold change. The Dose.FC.CTG in test [3] (dose 0.08 uM) was 0.246 log2 fold change; in test [3] (dose 0.40 uM), 0.214 log2 fold change; in test [3] (dose 2.00 uM) it was 0.315 log2 fold change; in test [3] (dose 10.00 uM) it was 0.026 log2 fold change.

With `COc1ccc(-n2nc(C(N)=O)c3c2C(=O)N(c2ccc(N4CCCCC4=O)cc2)CC3)cc1` [Apixaban], the Dose.FC.LYZ.NS in test [1] (dose 0.08 uM) is 0.004 log2 fold change; in test [1] (dose 0.40 uM), −0.030 log2 fold change; in test [1] (dose 2.00 uM), 0.029 log2 fold change; in test [1] (dose 10.00 uM), −0.082 log2 fold change. The “Z.LYZ.NS (standard z score)” value in test [1] (dose 0.08 uM) was 0.035; in test [1] (dose 0.40 uM), −0.260; in test [1] (dose 2.00 uM), 0.253; in test [1] (dose 10.00 uM), −0.712. For the same compound, the Dose.FC.LYZ.S in test [2] (dose 0.08 uM) is on record as 0.081 log2 fold change; in test [2] (dose 0.40 uM) it was 0.029 log2 fold change; in test [2] (dose 2.00 uM), 0.051 log2 fold change; in test [2] (dose 10.00 uM) it was −0.096 log2 fold change. Besides, the Dose.FC.CTG is reported as −0.089 log2 fold change in test [3] (dose 0.08 uM), 0.111 log2 fold change in test [3] (dose 0.40 uM), −0.060 log2 fold change in test [3] (dose 2.00 uM) and −0.077 log2 fold change in test [3] (dose 10.00 uM).

For the compound `O=C1C(=O)N(Cc2ccc(Cl)c(Cl)c2)c2ccccc21` [Apoptosis Activator 2], the Dose.FC.LYZ.NS in test [1] (dose 0.08 uM) is given as 0.149 log2 fold change; in test [1] (dose 0.40 uM), 0.033 log2 fold change; in test [1] (dose 2.00 uM), −0.006 log2 fold change; in test [1] (dose 10.00 uM), −0.199 log2 fold change. In addition, the “Z.LYZ.NS (standard z score)” value in test [1] (dose 0.08 uM) is given as 1.302; in test [1] (dose 0.40 uM), 0.290; in test [1] (dose 2.00 uM), −0.049; in test [1] (dose 10.00 uM), −1.734. Also, the Dose.FC.LYZ.S in test [2] (dose 0.08 uM) is 0.132 log2 fold change; in test [2] (dose 0.40 uM), 0.073 log2 fold change; in test [2] (dose 2.00 uM) it was −0.009 log2 fold change; in test [2] (dose 10.00 uM), −0.252 log2 fold change. Besides, the Dose.FC.CTG in test [3] (dose 0.08 uM) was 0.304 log2 fold change; in test [3] (dose 0.40 uM), 0.262 log2 fold change; in test [3] (dose 2.00 uM), 0.082 log2 fold change; in test [3] (dose 10.00 uM), −0.158 log2 fold change. For the same compound, the “Z.CTG (standard z score)” value was 0.725 in test [3] (dose 0.08 uM), 0.626 in test [3] (dose 0.40 uM), 0.195 in test [3] (dose 2.00 uM) and −0.378 in test [3] (dose 10.00 uM).

Take `C[C@@H](O[C@H]1OCCN(Cc2n[nH]c(=O)[nH]2)[C@H]1c1ccc(F)cc1)c1cc(C(F)(F)F)cc(C(F)(F)F)c1` [Aprepitant]: the Dose.FC.LYZ.NS in test [1] (dose 0.08 uM) is reported as 0.097 log2 fold change; in test [1] (dose 0.40 uM) it was 0.061 log2 fold change; in test [1] (dose 2.00 uM), 0.005 log2 fold change; in test [1] (dose 10.00 uM) it was −0.090 log2 fold change. Besides, the “Z.LYZ.NS (standard z score)” value is recorded as 0.840 in test [1] (dose 0.08 uM), 0.532 in test [1] (dose 0.40 uM), 0.043 in test [1] (dose 2.00 uM) and −0.780 in test [1] (dose 10.00 uM). Further, the Dose.FC.LYZ.S in test [2] (dose 0.08 uM) is given as 0.115 log2 fold change; in test [2] (dose 0.40 uM) it was 0.107 log2 fold change; in test [2] (dose 2.00 uM), −0.007 log2 fold change; in test [2] (dose 10.00 uM), −0.119 log2 fold change. For the same compound, the Dose.FC.CTG in test [3] (dose 0.08 uM) is recorded as 0.313 log2 fold change; in test [3] (dose 0.40 uM), 0.403 log2 fold change; in test [3] (dose 2.00 uM), 0.145 log2 fold change; in test [3] (dose 10.00 uM), 0.051 log2 fold change.

Turning to `O=C(O)c1cccc(-c2noc(-c3ccccc3F)n2)c1` [Ataluren (PTC124)], the Dose.FC.LYZ.NS in test [1] (dose 0.08 uM) turned out to be 0.029 log2 fold change; in test [1] (dose 0.40 uM), 0.042 log2 fold change; in test [1] (dose 2.00 uM) it was 0.131 log2 fold change; in test [1] (dose 10.00 uM) it was 0.009 log2 fold change. The “Z.LYZ.NS (standard z score)” value was 0.253 in test [1] (dose 0.08 uM), 0.362 in test [1] (dose 0.40 uM), 1.140 in test [1] (dose 2.00 uM) and 0.077 in test [1] (dose 10.00 uM). For the same compound, the Dose.FC.LYZ.S in test [2] (dose 0.08 uM) turned out to be 0.051 log2 fold change; in test [2] (dose 0.40 uM) it was 0.034 log2 fold change; in test [2] (dose 2.00 uM), 0.058 log2 fold change; in test [2] (dose 10.00 uM), 0.005 log2 fold change. The Dose.FC.CTG in test [3] (dose 0.08 uM) is 0.267 log2 fold change; in test [3] (dose 0.40 uM) it was −0.340 log2 fold change; in test [3] (dose 2.00 uM) it was −0.042 log2 fold change; in test [3] (dose 10.00 uM), 0.006 log2 fold change. In addition, the “Z.CTG (standard z score)” value in test [3] (dose 0.08 uM) is listed as 0.639; in test [3] (dose 0.40 uM), −0.813; in test [3] (dose 2.00 uM), −0.100; in test [3] (dose 10.00 uM), 0.013.
